The target of this assay is T1, full-length human S1P1 (Homo sapiens, UniProt P21453).
T1 construct: CHO-K1 Gαqi5 cells expression full-length human S1P1; expressed in transfected cells; host or cells: CHO-K1 Gαqi5 cells (membrane preparation)
In words: GTPγS binding assay (scintillation proximity assay) on S1P1 membranes. Conditions: membranes from CHO-K1 Gαqi5 cells expressing full-length human S1P1; GTPγ35S; 60 minutes incubation. In kind it is biochemical. As for the experimental part:
S1P1 membrane is prepared from CHO-K1 Gαqi5 cells expression full-length human S1P1. Scintillation proximity assay (SPA) is performed by incubating membranes, GTPγ^35S, and compound 11 at various concentrations for 60 minutes. Wheat germ agglutinin-coated SPA beads are added and incubated for 60 minutes before centrifugation and scintillation counting.
For orientation: GTPγS is a poorly hydrolysed GTP analogue; its binding reports G protein activation.

Among the data in patent US20200071327A1, “Prodrugs for the Treatment of Disease” (Oppilan Pharma Ltd., priority 2017, published 2020) are EC50 values, retold here.

One may read the EC50 as the midpoint of the concentration-response curve. A higher EC50 goes with a less potent agent.

T1 sequence (P21453 whole entry): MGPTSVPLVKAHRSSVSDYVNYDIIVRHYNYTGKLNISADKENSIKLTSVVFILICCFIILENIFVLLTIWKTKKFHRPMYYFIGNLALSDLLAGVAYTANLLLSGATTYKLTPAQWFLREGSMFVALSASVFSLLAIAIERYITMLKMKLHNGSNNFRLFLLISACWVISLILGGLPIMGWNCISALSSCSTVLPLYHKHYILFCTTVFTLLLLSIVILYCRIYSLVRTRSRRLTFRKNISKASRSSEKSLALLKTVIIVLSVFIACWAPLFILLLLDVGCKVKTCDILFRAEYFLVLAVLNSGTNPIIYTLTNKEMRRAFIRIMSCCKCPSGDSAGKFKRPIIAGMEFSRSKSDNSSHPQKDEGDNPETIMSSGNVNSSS

Compound `O=C1CC[C@@H](Oc2cc(Cl)c(-c3noc(-c4cn5cc(C(F)(F)F)cc(Cl)c5n4)n3)cc2Cl)CN1` [compound 11, (R)-5-(2,5-diehloro-4-(5-(8-chloro-6-(trifluoromethyl)imidazo[1,2-a]pyridin-2-yl)-1,2,4-oxadiazol-3-yl)phenoxy)piperidin-2-one] returned an EC50 of under 1 µM.
